Assay results: patent US9693987B2, “Methods for treating cancers using oral formulations of cytidine analogs” (CELGENE CORPORATION, priority 2011, dated 2017)

Assays:
Nasopharyngeal cancer = experiment: Clinical study Part 1, oral azacitidine alone or with CBDCA or ABX, tumor response; assay type: in vivo, human; conditions: Part 1 Arm C
Text: The study was an open-label, 3-arm, multi-center, dose-escalation study of oral azacitidine in combination with either CBDCA (Arm A), ABX (Arm B), or as a single agent (Arm C) in subjects with relapsed or refractory solid tumors (Part 1). Subjects were assigned to each study Arm at the discretion of the investigator. A minimum of 6 subjects were assigned to each study Arm when a dose level (DL) became open for enrollment. If one (1) or zero (0) out of six (6) subjects in a DL experienced dose limiting toxicity (DLT), the dose of oral azacitidine was escalated in the successive DL. A limited number of oral azacitidine DLs were explored to arrive at a recommended Part 2 dose (RP2D) of oral azacitidine for each study Arm. The RP2D may be the MTD, MAD, or a lower dose depending on the tolerability, PK, and PD observed. Part 1 was followed by expansion cohorts at the RP2D in specific tumor types (Part 2). Approximately 60 subjects were enrolled in Part 1, and approximately 100 subjects were enrolled in Part 2. Safety, efficacy, pharmacokinetics, and pharmacodynamics data were evaluated.
Subjects are evaluated for tumor response after Cycle 2 and every other Cycle thereafter. […]
In one embodiment, in Part 1, Arm C of the study, 5-azacytidine was dosed from Day 1 to Day 21, in a 21-day cycle (continuous). Safety and PD were analyzed. […]

DNMT1 [1] = experiment: DNMT1 western blotting, MDA-MB-231 cells in vitro; assay type: cell-based
Method: (§1) The effects of AZA dose and schedule (short-term vs. extended) on pharmacodynamic markers such as DNMT1 depletion, DNA methylation, and DNA damage were evaluated in MDA-MB-231 breast cancer cells in vitro and in vivo. For in vitro experiments, MDA-MB-231 cells were treated daily with 0.1 or 0.3 μM AZA for up to 12 days, and harvested at various times during treatment, as well as up to 12 days following treatment. For in vivo studies, MDA-MB-231 tumor-bearing mice were dosed (ip) with 1 or 3 mg/kg AZA daily for 3, 7, 14, 21, or 28 days and tumors were harvested during and at several time points after the dosing period. DNA and cell lysates were prepared (from cell pellets or xenograft tumors) for DNA methylation analysis (LINE-1 or EpiTech Methyl qPCR assay) and DNMT1/γH2AX western blotting, respectively.

DNMT1 [2] = experiment: DNMT1 western blotting, MDA-MB-231 xenograft tumors; assay type: in vivo, mice
Method: as §1

[3] = system: DNA methylation (LINE-1 and gene-specific); experiment: DNA methylation analysis (LINE-1 or EpiTech Methyl qPCR), MDA-MB-231 cells in vitro; assay type: cell-based
Method: as §1

[4] = system: DNA methylation (LINE-1 and gene-specific); experiment: DNA methylation analysis (LINE-1 or EpiTech Methyl qPCR), MDA-MB-231 xenograft tumors; assay type: in vivo; conditions: MDA-MB-231 tumors in mice, 1 or 3 mg/kg AZA ip daily; further reduction with additional days of dosing
Method: as §1

γH2AX = γH2AX western blotting (DNA damage), MDA-MB-231 xenograft tumors; assay type: in vivo; conditions: MDA-MB-231 tumor-bearing mice
Method: as §1

LINE-1 methylation = experiment: DNA methylation (LINE-1) in PBMC DNAs from patients; assay type: in vivo, human; conditions: patients of Example 1, Arm C, 200 mg oral AZA; Days 1, 8 and 15 of 21-day cycle
Method: (§2) In one embodiment, PBMC DNA was used for assessing changes in DNA methylation, using assays such as LINE-1 methylation, %5mdC mass spec, Infinium® Methylation27 Array, and Infinium® Methylation450 Array. In one study, DNA methylation (LINE-1) in PBMC DNAs from patients in clinical studies described in Example 1, dosed with 200 mg oral AZA alone or in combination with CDBCA or ABX, was measured on Days 1, 8, and 15 of 21-day cycle. […] In one study, %5mdC in PBMC DNAs from patients in clinical studies described in Example 1, dosed with 200 mg oral AZA alone or in combination with CDBCA or ABX, was measured on Days 1, 8, and 15 of 21-day cycle. In one study, methylation levels were measured on Days 1, 8, and 15 of 21-day cycle using Infinium® Methylation27 Array (patients dosed with 200 mg oral AZA alone or in combination with CDBCA or ABX) and density profiles of average methylation levels were analyzed. […] In another study, methylation levels were measured using Infinium® Methylation450 Array (patients dosed with 300 mg oral AZA alone or in combination with CDBCA or ABX) and density profiles of average methylation levels were analyzed, as well as % change of hypermethylated loci (beta>0.7) upon treatment.

[5] = system: DNA methylation, hypermethylated loci (beta>0.7); experiment: Infinium Methylation27 Array, PBMC DNA of patients; assay type: in vivo, human; conditions: patients dosed with 200 mg oral AZA alone (Arm C) or with CBDCA (Arm A) or ABX (Arm B); Days 1, 8, 15 of 21-day cycle
Method: DNA methylation is employed as a biomarker to monitor responses in patients treated with azacitidine in the clinical studies described herein. Analysis is performed with an Infinium Assay (commercially available from Illumina, Inc., San Diego, Calif.). The Infinium Assay combined with BeadChips allows large-scale interrogation of variations in the human genome. For example, the Infinium HumanMethylation27 BeadChip enables interrogation of 27,578 CpG loci, covering over 14,000 genes. […]
The assay for methylation is used to detect methylation status at individual CpG loci by typing bisulfite-converted DNA. […] Blood samples were collected and DNA methylation was analyzed in parallel. In other embodiments, bone marrow samples are collected and DNA methylation analyzed in parallel.
In one embodiment, PBMC DNA was used for assessing changes in DNA methylation, using assays such as LINE-1 methylation, %5mdC mass spec, Infinium® Methylation27 Array, and Infinium® Methylation450 Array. In one study, DNA methylation (LINE-1) in PBMC DNAs from patients in clinical studies described in Example 1, dosed with 200 mg oral AZA alone or in combination with CDBCA or ABX, was measured on Days 1, 8, and 15 of 21-day cycle. […]

DNA methylation in PBMCs = experiment: DNA hypomethylation in PBMCs of patients (summary); assay type: in vivo, human
Method: as §2

[6] = PK exposure of AZA in patients; assay type: in vivo; conditions: human, plasma; oral AZA, patients of the clinical study; read-out: AUCinf of patients in whom decreases in DNA methylation were observed
Method: For oral azacitidine, CBDCA, and ABX (administered alone and in combination), the following plasma PK parameters are assessed: (1) maximum observed concentration in plasma (Cmax); (2) area under the concentration-time curve (AUC); (3) time to maximum concentration (tmax); (4) terminal half-life (t1/2); (5) apparent total body clearance (CL/F); and (6) apparent volume of distribution (Vz/F). To evaluate the PD effects of oral azacitidine in blood, plasma, and tumor tissue, the following endpoints are collected: (1) change from baseline (Cycle 1 Day 1 pre-dose) in DNA methylation (global and gene-specific assays) in whole blood and tumor tissue (as available in Part 1); (2) reduction from baseline (Cycle 1 Day 1 predose) in DNMT1 protein levels in tumor tissue (as available in Part 1).

higher-risk MDS = conditions: Phase III study, administered subcutaneously, subjects with higher-risk MDS; cited from earlier work
[7] = system: Ninety-two cancer cell lines; experiment: In vitro modeling of clinical dosing schema, AZA with CBDCA or ABX, cancer cell line panel; assay type: cell-based; conditions: other experiments; some cell lines
Method: DNA hypomethylation (e.g., LINE-1, p16) was measured 72 hours after AZA treatment alone or in combination with CBDCA or ABX. p16 (mRNA) re-expression was determined 72 hours after AZA treatment alone or in combination with CBDCA or ABX. Ninety-two cancer cell lines were tested in order to identify specific tumor types that become sensitized to CBDCA or ABX after treatment with AZA (bladder cancer n=8; head and neck cancer n=8, breast cancer n=21; lung cancer n=35; pancreatic cancer n=7; ovarian cancer n=7; and melanoma n=6).

## Nc1ncn([C@@H]2O[C@H](CO)[C@@H](O)[C@H]2O)c(=O)n1 [AZA, 4-amino-1-β-D-ribofuranosyl-1,3,5-triazin-2(1H)-one]
Nasopharyngeal cancer; AZA dose 300 mg single agent, nasopharyngeal patient
  Time on Study: >3 mo
Nasopharyngeal cancer; 5-azacytidine 300 mg Day 1 to Day 21, 21-day cycle, nasopharyngeal cancer
  Tumor response: Partial responses
DNMT1 [1]; MDA-MB-231 cells in vitro
  Time for DNMT1 protein levels to return to basal levels after AZA treatment was halted: 3 to 4 days
DNMT1 [1]; MDA-MB-231 cells treated daily with 0.1 or 0.3 μM AZA for up to 12 days
  DNMT1 protein level: dose-dependent depletion
DNMT1 [2]; MDA-MB-231 tumor-bearing mice, 1 or 3 mg/kg AZA ip
  Time to DNMT1 protein depletion post in vivo dose: ≤ 8 h
DNMT1 [2]; MDA-MB-231 tumor-bearing mice, 1 or 3 mg/kg AZA ip daily
  DNMT1 protein level: dose-dependent depletion
DNMT1 [2]; MDA-MB-231 tumors in mice
  Time for DNMT1 protein levels to return to basal levels after AZA treatment was halted: 3 to 4 days
[3]; MDA-MB-231 cells in vitro
  Time for DNA methylation to return to basal levels upon AZA removal: ≤ 8 days
[3]; MDA-MB-231 cells, 0.1 or 0.3 μM AZA daily, further reduction with additional days of dosing
  DNA methylation (LINE-1 and gene-specific): dose-dependent decrease
[4]
  DNA methylation (LINE-1 and gene-specific): dose-dependent decrease
γH2AX; 1 mg/kg AZA ip daily
  Days of dosing until DNA damage was observed in tumors: 21 days
γH2AX; 3 mg/kg AZA ip daily
  Days of dosing until DNA damage was observed in tumors: 14 days
LINE-1 methylation
  DNA methylation (LINE-1) in PBMC DNAs: Decreases in LINE-1 methylation were observed for two patients
[5]
  DNA methylation in PBMCs upon treatment (hypermethylated loci, beta>0.7): decreases in hypermethylated loci
DNA methylation in PBMCs; 200 mg oral AZA alone (Arm C) or with ABX (Arm B) or CBDCA (Arm A)
  Patients with DNA hypomethylation in PBMCs / patients analyzed: 5/6
DNA methylation in PBMCs; 300 mg oral AZA alone (Arm C) or with CBDCA (Arm A)
  Patients with DNA hypomethylation in PBMCs / patients analyzed: 3/3
[6]
  AUC(0-inf): > 350 ng·h/mL
higher-risk MDS
  Survival and time to AML transformation or death: significantly prolonged survival

## Nc1ncn([C@H]2C[C@H](O)[C@@H](CO)O2)c(=O)n1 [DAC, 5-aza-2′-deoxycytidine]
[7]
  Interaction of DAC (decitabine) priming with ABX: antagonism
  Interaction of DAC (decitabine) priming with CBDCA: additivity or synergy
